Structures are written as SMILES. Where “and” joins values, the source holds several entries; their conditions need not be identical. Equal values may be shown once.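 Following 48 hours of exposure in 96-well plates, responses at five concentrations were used to interpolate endpoints linearly. Abbreviation: GI50, concentration required for 50% inhibition of growth. TGI: total growth inhibition.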 Where only a bound is given, the exact number is not on record here.

Test systems include UACC-257 melanoma; HCT-116 colon; UO-31 renal; RPMI-8226 leukemia; SNB-19 CNS; PC-3 prostate; SNB-75 CNS; SF-295 CNS; T-47D breast.
What all share (assay): NCI tumour cell line growth inhibition, 48 h

Consider `COc1ccccc1N=Nc1c(O)ccc2ccccc12`, for which the GI50 was 41.5 µM and > 100 µM in the test with UACC-257 melanoma; 30.4 µM and > 100 µM in the test on RPMI-8226 leukemia. Further, the TGI in the test on UACC-257 melanoma was more than 100 µM; in the test with HCT-116 colon it was more than 100 µM; with UO-31 renal, 39.1 µM; in the test on RPMI-8226 leukemia, more than 100 µM; in the test with SNB-19 CNS, > 74.7 µM and 90.4 µM; in the test on PC-3 prostate, more than 100 µM. The TGI in the test with SNB-75 CNS is 41.8 µM and 39.7 µM; with SF-295 CNS, 48.3 µM and 78.2 µM; in the test with T-47D breast, more than 100 µM.
On to `COc1ccc(O[C@H](CO)C[C@@H]2COC(C)(C)O2)cc1`, for which the TGI with UACC-257 melanoma, in the test on HCT-116 colon, with UO-31 renal, in the test with RPMI-8226 leukemia, in the test with SNB-19 CNS and with PC-3 prostate was more than 100 µM in each case. Moreover, the TGI in the test with SNB-75 CNS and in the test with SF-295 CNS was more than 100 µM throughout.
On to `CCCCCCCCCCCC1=C(O)C(=O)C(CC2=C(O)C(=O)C(CCCCCCCCCCC)=C(O)C2=O)=C(O)C1=O`, for which the TGI was more than 100 µM in the test on UACC-257 melanoma; more than 100 µM in the test on HCT-116 colon; more than 100 µM in the test on UO-31 renal; 73.3 µM with SNB-19 CNS; more than 100 µM in the test with PC-3 prostate; 37.5 µM with SNB-75 CNS. Moreover, the TGI in the test with SF-295 CNS and with T-47D breast was more than 100 µM each time.
As for `O=C(Nc1cccc2ccccc12)c1cc2ccccc2oc1=O`, the TGI in the test with UACC-257 melanoma was more than 100 µM; in the test with HCT-116 colon, more than 100 µM; in the test with RPMI-8226 leukemia it was more than 100 µM; with SNB-19 CNS, 85.1 µM; with PC-3 prostate, more than 100 µM; in the test on SNB-75 CNS, more than 100 µM. The same molecule gave a TGI with T-47D breast of more than 100 µM.
`CC(=O)c1c(-c2ccc(Cl)cc2)c(C#N)c(=S)n(C2OC(CO)C(O)C(O)C2O)c1C` (stereo not given): the TGI with UACC-257 melanoma was more than 100 µM; in the test with HCT-116 colon it was more than 100 µM; with UO-31 renal it was 6.92 µM; with SNB-19 CNS it was 84.9 µM; with PC-3 prostate it was 99.3 µM; with SNB-75 CNS it was more than 100 µM. In addition, the TGI with SF-295 CNS and in the test on T-47D breast was more than 100 µM in each case.
`CN1C(c2ccccc2)CC(O)CC1c1ccccc1` (stereo not given): the TGI in the test on UACC-257 melanoma, in the test with HCT-116 colon, in the test with UO-31 renal, in the test on RPMI-8226 leukemia, in the test on SNB-19 CNS and in the test on SNB-75 CNS was more than 100 µM each time. This molecule registered a TGI in the test with SF-295 CNS of more than 100 µM.
As to `CC[C@]1(c2ccc3c(c2)OCO3)C=[N+]([O-])O[C@H](OC2CCCC2(c2ccccc2)c2ccccc2)[C@@H]1OC(C)=O` (stereo not given in full), the TGI was determined as 7.62 µM in the test on UACC-257 melanoma; 3.67 µM in the test on HCT-116 colon; 5.21 µM with UO-31 renal; 12.7 µM in the test on SNB-19 CNS; 13.1 µM in the test on PC-3 prostate; 5.93 µM in the test with SNB-75 CNS. In addition, the TGI in the test on SF-295 CNS is 3.2 µM; in the test on T-47D breast, 10.2 µM.
For `O=[N+]([O-])/C=C/c1cc(Cl)c(/C=C/[N+](=O)[O-])cc1Cl`, the TGI in the test with UACC-257 melanoma was 5.25 µM; with HCT-116 colon, 7.1 µM; in the test with RPMI-8226 leukemia, 3.99 µM; with SNB-19 CNS, 6.91 µM; with PC-3 prostate it was 9.15 µM; in the test on SNB-75 CNS, 29.6 µM. For the same molecule, the TGI in the test with SF-295 CNS worked out at 25 µM; in the test with T-47D breast, 6.38 µM.
Turning to `C/C(=N/NC(=S)Nc1ccc(C)cc1)c1ccccn1`, the TGI stood at 0.802 µM in the test on UACC-257 melanoma; 13 µM with HCT-116 colon; 12.6 µM in the test on UO-31 renal; 25.7 µM in the test with RPMI-8226 leukemia; 20.6 µM in the test on SNB-19 CNS; 13.7 µM in the test with PC-3 prostate. The TGI in the test on SNB-75 CNS turned out to be 17.2 µM; in the test on SF-295 CNS it was 11.8 µM.
As to `O=C(O)C1CCC(=O)N1C(=O)COc1cc(Cl)c(Cl)cc1Cl` (stereo not given), the TGI in the test with UACC-257 melanoma, in the test with HCT-116 colon, with UO-31 renal, in the test on SNB-19 CNS, with SNB-75 CNS and in the test on SF-295 CNS was more than 100 µM throughout.
As to `CC(C)(NO)/C(=N\O)c1ccccc1`, the TGI with UACC-257 melanoma, in the test with HCT-116 colon, in the test on UO-31 renal, in the test on RPMI-8226 leukemia, with SNB-19 CNS and with PC-3 prostate was more than 10 µM each time. Moreover, the TGI in the test with SF-295 CNS and in the test with T-47D breast was more than 10 µM throughout.
On to `CC(=O)O[C@H]1CC[C@@H](OC(C)=O)[C@H]2[C@H](O)[C@H](O)[C@@H]1n1c(=O)n(-c3ccccc3)c(=O)n12`, for which the TGI with UACC-257 melanoma, with HCT-116 colon, in the test on UO-31 renal, with RPMI-8226 leukemia, with SNB-19 CNS and in the test with PC-3 prostate was more than 100 µM each time. In addition, the TGI in the test with SF-295 CNS and in the test with T-47D breast was more than 100 µM throughout.
Consider `COC1=C(OC)C(=O)C(Cc2c(Cl)nc3sccn23)=C(C)C1=O`, for which the TGI was 16.1 µM in the test on UACC-257 melanoma; 41.3 µM in the test with HCT-116 colon; 23.6 µM in the test with UO-31 renal; 15.7 µM in the test on RPMI-8226 leukemia; 28.1 µM in the test with SNB-19 CNS; 28.5 µM in the test with PC-3 prostate. The TGI in the test on SF-295 CNS stood at 25.4 µM; with T-47D breast it was 17.8 µM.
Turning to `CCCCCCCCCCCCOCC(COP(=O)(O)OCCN=[N+]=[N-])OC(=O)CCCCCCCCCCC` (stereo not given), the TGI in the test on HCT-116 colon, in the test with UO-31 renal, with RPMI-8226 leukemia, in the test on SNB-19 CNS, in the test on PC-3 prostate and with SF-295 CNS was more than 100 µM in each case. In the test on T-47D breast, this molecule showed a TGI of more than 100 µM.
As to `COc1cccc2c(=O)oc(-c3ccccc3C)nc12`, the TGI is more than 100 µM with HCT-116 colon; more than 100 µM with UO-31 renal; more than 100 µM in the test with RPMI-8226 leukemia; more than 100 µM with PC-3 prostate; more than 100 µM in the test on SNB-75 CNS; 88.9 µM in the test on SF-295 CNS. In the test on T-47D breast, this molecule displayed a TGI of more than 100 µM.
For the molecule `CN(C)c1cccc2c(S(=O)(=O)NCCN)cccc12`, the TGI is more than 100 µM in the test on UACC-257 melanoma; more than 100 µM with HCT-116 colon; more than 100 µM with UO-31 renal; more than 100 µM in the test on SNB-19 CNS; more than 100 µM in the test with PC-3 prostate; 64.1 µM in the test on SNB-75 CNS. Also, the TGI in the test on SF-295 CNS and in the test with T-47D breast was more than 100 µM throughout.

(Values after PubChem BioAssay (NCI).)
